Results on 14 compounds are retold here after patent US9867869B2, “Insulin derivatives for diabetes treatment” (Massachusetts Institute of Technology, priority 2012, dated 2018).

Series [1] is described as follows: 11B NMR complexation efficiency with 4-carboxyphenylboronic acid. Type of series: physicochemical. Particulars: PBS 0.1M, 37° C. How it is done: ^11B NMR spectra were recorded on a VARIAN Inova-500 spectrometer operated at 160.3 MHz with gXH switchable broadband probe installed. Samples at a concentration of 10 mM were transferred to a 5 mm Norell natural quartz NMR tube (Sigma-Aldrich). Diols and 4-carboxyphenylboronic acids were co-dissolved in phosphate buffer, 0.1 M at pH 7.4 or 8.5 and tested at 37° C.
PBA is known to recognize and bind to compounds containing 1,2- and 1,3-diol residues via the formation of a boronate ester [Wang et al., Curr. Org. Chem. 2002, 6, 1285-1317]. At aqueous conditions the boronate ester is a dynamic complex. […] In order to achieve this goal, a variety of commercially available azido substituted diols were tested for their ability to complex with PBA. […] In addition, the effect of azide group on the binding with PBA is unknown. Therefore, 4 commercially available azido diols (FIGS. 16A to 16D) were selected for testing based on their diverse structures. These compounds include azido-substituted monosaccharides (A and C), disaccharide (B), oligosaccharide (C), adenosine (D) and dopamine (E). The complexation between 4-carboxyphenylboronic acid and above materials was evaluated using ^11B NMR (FIG. 16, Table 1).
The chemical shift of boron in PBA changes when it is complexed with a diol. […] Therefore, the efficiency of complexation was estimated by monitoring the ratio of these two peaks. The effect of pH on complexation and structure of diols was studied.

Series [2] is described as follows: 11B NMR stability of 4NBA:diol complexes in phosphate buffer. Particulars: suspended in PBS, after 24 hr, pH 7.4, 37° C. The protocol: FIG. 18 is a graph showing ^11B NMR analysis for the stability of 4NBA:diol complexes at phosphate buffer, 0.1 M, pH 7.4, 37° C. […] Solids were then separated via centrifugation and freeze dried. Samples were dissolved in DMSO-d^6 at a concentration of 10 mM and were tested at room temperature.
Complexation of DP3-Insulin with PBA was studied with ^11B NMR between 4NBA, 1TBA and selected diols (Table 2).

Series [3] in a line: 11B NMR complexing efficiency with 4NBA. The class given is physicochemical. Conditions: for degree of complexation with 4NBA: pH and equivalence not stated; for Diol-PBA Complex %: 4NBA, pH 8.5, PBA:Diol 1:1, acetonitrile/PBS, room temperature. The protocol:
(§1) Direct complexation of DP3-Insulin was carried out at an aqueous/organic 2/1 v/v solution in order to enable co-solubility with hydrophobic phenylboronic acids. Equal molar quantities of 4NBA and DP3-Insulin (0.5 mM) were dissolved in 2:1 acetonitrile:PBS and then the pH was modified to 7.5 or 8.5 by adding calculated amount of concentrated NaOH solution. The obtained complex was immediately frozen in liquid nitrogen and then freeze dried to generate a white solid. Similarly, selected diols (glucose, fructose, 4EC, 2HA, Azido-6-glactose, DP1-peptide and DP3-peptide) were formulated via the direct method. In order to validate formation of a complex 4NBA-diols, 1TBA-solids obtained by the direct method, as well as, their organic/aqueous solutions (prior to freeze drying) were analyzed with ^11B NMR and via FTIR.
(§2) 1TBA and 4NBA complexing efficiency with selected diols was measured in similar conditions but at a mixture of acetonitrile/PBS 2:1, according to the direct formulation procedure. Solid PBA-DIOL complexes were evaluated in DMSO. Data were analyzed with VNMR 6.1c software. Chemical shifts are reported in parts per million (ppm) on the δ scale.

The conditions of series [4]: traditional phenylboronic acid; cited from earlier work.
A short description of series [5]: 11B NMR complexing efficiency with 1TBA. The class given is physicochemical. The protocol: as §1, §2
The conditions of series [6]: in vivo; cited from earlier work.
The nature of series [7]: Solubility of hydrophobic PBA as function of glucose or fructose concentration. Particulars: PBS with 0-1000 mg/dL glucose or fructose, 6 hours, RT. Type of series: physicochemical. The protocol: FIGS. 19A and 19B are graphs showing hydrophobic PBAs (1TBA, 4DBA and 4NBA) tested as a function of glucose (A) and fructose (B) concentrations in PBS. 10 mg of solid, hydrophobic PBA were dispersed in […] of phosphate buffer saline containing various concentrations of glucose and fructose; samples were mixed for 6 hours at room temperature, centrifuged, and aliquots were quantified against a calibration curve using reverse phase HPLC.
2.14. Solubility of Hydrophobic PBA as Function of Glucose or Fructose Concentration. 10 mg of Hydrophobic PBA (4DBA, 1TBA and 4NBA) were suspended in 40 ml vials containing phosphate buffer saline with various concentrations of glucose or fructose (0-1000 mg/dL); samples were mixed for 6 hours at RT. The solid suspension was centrifuged and aliquots were evaluated for PBA concentration. Analytical HPLC (Agilent 1200) was used to analyze samples. 2.15 Diol-Insulin Analogs PBA Affinity Test

[8] abbreviates: pH 7.4, PBA:Diol 1:2, PBA 10 mM.
The mark [9] stands for this setting: pH 8.5, PBA:Diol 1:2, PBA 10 mM.
[10] abbreviates: pH 7.4, PBA:Diol 1:1, PBA 10 mM.
Setting [11] is: pH 7.4, PBA:Diol 1:10, PBA 10 mM.

With `[N-]=[N+]=Nc1nc2c(N)ncnc2n1[C@@H]1O[C@H](CO)[C@@H](O)[C@H]1O` [8-Azido-Adenoside], the Complex % in series [1] (setting [8]) turned out to be 47.6%; in series [1] (pH 7.4, PBA:Diol 1:2, PBA 10 mM, listed as D), 48%; in series [1] (setting [9]) it was 61.6%.

As to `[N-]=[N+]=N[C@@H]1O[C@H](CO)[C@@H](O[C@@H]2O[C@H](CO)[C@H](O)[C@H](O)[C@H]2O)[C@H](O)[C@H]1O` [1-Azido-1-deoxy-beta-D-lactopyranoside], the Complex % in series [1] (setting [8]) stood at 4.0%; in series [1] (setting [9]), 8.3%.

Take `O=C[C@H](O)[C@@H](O)[C@H](O)[C@H](O)CO` [Glucose]: the complexed form remaining entry in series [2] is listed as “less than 10%”. Also, the Complex % is 4.0% in series [1] (setting [10]); 11.0% in series [1] (setting [8]); 11% in series [1] (pH 7.4, PBA:Diol 1:2, PBA 10 mM, listed as glucose); 22.8% in series [1] (setting [11]); 49.4% in series [1] (setting [9]); “up to 50%” in series [1] (pH 8.5, PBA:Diol 1:2, PBA 10 mM, listed as glucose). Further, the “degree of complexation with 4NBA” value in series [3] is reported as 74%.

Take `OB(O)c1ccccc1` [phenylboronic acid]: in series [4], the pKa entry is listed as “approximately 8.9”.

Turning to `[N-]=[N+]=NC[C@@H](O)[C@H](O)[C@H](O)[C@@H](O)C=O` [6-azido-6-deoxy-D-galactose], the results for the Complex % in series [1] (setting [8]) and in series [1] (setting [9]) were 17.6% and 74.9%, respectively.

Consider `CCc1ccc(O)c(O)c1` [4EC], for which the “Diol-PBA Complex %” value in series [5] (1TBA, pH 8.5, PBA:Diol 1:1, acetonitrile/PBS, room temperature) amounted to 75%; in series [3] it was 87%. In series [5] (pH of 7.5, PBA not specified (1TBA and 4NBA named)), the complexation ratio stood at 10%.

In the case of Maltoheptaose, the Complex % in series [1] (setting [10]) was 7.5%; in series [1] (pH 8.5, PBA:Diol 1:1, PBA 10 mM) it was 4.0%.

As to “Lispro: fast acting insulin where B29 lysine and B28 proline have been switched”, in series [6], the duration of action was 4 to 6 h, the onset time is 5 to 15 min and the peak action is 30 to 90 min.

Regarding “azido-pentanoic-DOPA-GLY-DOPA-GLY-DOPA-GLY-NH2 [DP3-peptides]”, the “Diol-PBA Complex %” value in series [3] was found to be 91%.

Turning to `O=C(CO)[C@@H](O)[C@H](O)[C@H](O)CO` [Frucrose], the complexed form remaining entry in series [2] is reported as “above 50%”. The Complex % in series [1] (setting [10]) was determined as 27.4%; in series [1] (setting [8]), 34.9%; in series [1] (pH 7.4, PBA:Diol 1:2, PBA 10 mM, listed as Fructose), 35%; in series [1] (setting [11]) it was 44.9%; in series [1] (setting [9]) it was 67.3%. Further, the “degree of complexation with 4NBA” value in series [3] was about 100%.

In the case of `COc1ccc(CN(C2CCCCC2)S(=O)(=O)c2ccc(B(O)O)cc2)cc1` [4NBA, 4-(N-cyclohexyl-N-(4-methoxybenzyl)sulfamoyl)phenylboronic acid], the “solubility and glucose response range” value in series [7] was “low solubility and response range within expected diabetic glucose levels”.

As to `NCCc1ccc(O)c(O)c1` [Dopamine], the Complex % in series [1] (setting [8]) came out at 38.7%; in series [1] (pH 7.4, PBA:Diol 1:2, PBA 10 mM, listed as E), 39%; in series [1] (setting [11]), 58.1%; in series [1] (setting [9]), 100.0%.

On to `[N-]=[N+]=N[C@H]1O[C@H](CO)[C@@H](O)[C@H](O)[C@@H]1O` [Alpha-D-Mannopyranosyl azide], for which the Complex % in series [1] (setting [8]) was 4.2%; in series [1] (setting [9]), 22.5%.

With glargine, the “time basal level of insulin is maintained” value in series [6] is on record as “up to 24 hours”.
